Experimental data: US9684238B2, “Fluorene-type compound, photopolymerization initiator comprising said fluorene-type compound, and photosensitive composition containing said photopolymerization initiator” (TOKYO OHKA KOGYO CO., LTD., priority 2012, dated 2017)

Assays:
[1] = Absorption coefficient (absorbance of 0.001% solution in tetrahydrofuran); assay type: physicochemical; settings: for Λ max (absorption maximum wavelength): 0.001% (wt/vol) in tetrahydrofuran, from 280 nm to 400 nm; for Absorption coefficient at 365 nm / Absorption coefficient at Λ max: 0.001% (wt/vol) solution in tetrahydrofuran
Experimental: A 0.001% (wt/vol) solution of each of the compounds 1, 2, 4, 6, 8, 9, 11, 12, 13, 15, 16, D-1, D-3, D-4, D-7, D-8, D-9, D-12, D-14, D-15, D-20, C-1, and C-2 in tetrahydrofuran was prepared, and its absorbance was measured with a spectrophotometer (manufactured by Hitachi High-Technologies Corporation, trade name: “U-3900H”). An absorption maximum wavelength (Amax) at a wavelength of from 280 nm to 400 nm was read from an absorption spectrum obtained with the spectrophotometer.

[2] = Decomposition point by thermal analysis (TG-DTA); assay type: physicochemical; settings: 5.0 mg
Experimental: The compounds 1, 2, 4, 6, 8, 9, 11, 12, 13, 15, 16, D-1, D-3, D-4, D-7, D-8, D-9, D-12, D-14, D-15, D-20, C-1, and C-2 were each subjected to measurement with a thermal analysis apparatus (TG-DTA) (manufactured by Rigaku Corporation, trade name: “Thermo Plus EVO TG 8120”) by using 5.0 mg thereof.

[3] = Evaluation 1: 20-μm pattern line width of transparent photosensitive composition; settings: for sensitivity to the active energy ray (in words): photopolymerization initiator containing the compound; for 20-μm pattern line width: transparent composition, initiator 0.4 mmol
Experimental: After that, the mixture was filtered with a membrane filter having an aperture of 5 μm to provide a photosensitive composition.
It should be noted that the fluorene-based compound as a photopolymerization initiator was used in such an amount that its molar quantity was kept constant in the respective examples and comparative examples.
The glass substrate after the application was dried with a fan dryer at 90° C. for 10 minutes. Thus, a coating film (photosensitive layer) was formed. Next, the film was exposed to light having an exposure energy quantity of 5 mJ/cm^2, 10 mJ/cm^2, 20 mJ/cm^2, 40 mJ/cm^2, 60 mJ/cm^2, or 80 mJ/cm^2 by using a high-pressure mercury lamp (manufactured by Karl Suss, trade name: “MASK ALIGNER”) through a negative mask (mask width: 20 μm). Next, the resultant was immersed in a 0.1 wt % aqueous solution of tetramethylammonium hydroxide (TMAH) and then rinsed with pure water. The remaining cured film was subjected to the following evaluation.
(§1) A larger value for the line width means higher sensitivity.

[4] = Average transmittance of composition; assay type: physicochemical; settings: photosensitive composition, quartz cell, optical path length 1 cm
Experimental: The average transmittance (%) of each of the photosensitive resin compositions obtained in Examples 1 to 9, Examples 2-1 to 2-10, and Comparative Examples 1 and 2 in the range of from 400 nm to 700 nm was measured with a spectrophotometer (manufactured by Hitachi High-Technologies Corporation, trade name: “U-3900H”, quartz cell, optical path length; 1 cm).

[5] = Transmittance of transparent cured film; assay type: physicochemical; settings: for Average transmittance (700 nm to 400 nm) Transparent cured film / Transmittance (400 nm) Transparent cured film: cured at exposure energy quantity 80 mJ/cm^2; for transparency of photosensitive composition and formed product (in words): photopolymerization initiator containing the compound
Experimental: Transparent cured films were formed by using the photosensitive compositions obtained in Examples 1 to 9, Examples 2-1 to 2-10, and Comparative Examples 1 and 2 in the same manner as in the evaluation 1 except that the exposure energy quantity was set to 80 mJ/cm^2. The transmittance (%) of each of the resultant transparent cured films at 400 nm and the average transmittance (%) thereof in the range of from 400 to 700 nm were measured with a spectrophotometer (manufactured by Hitachi High-Technologies Corporation, trade name: “U-3900H”, quartz cell, optical path length; 1 cm). A higher transmittance at 400 nm means less coloring with a yellow color. In addition, a higher transmittance of a coating film means a higher transmitting property of a pattern to be formed.

[6] = Solubility in PGME, PGMEA and ethyl lactate; assay type: physicochemical; settings: for solubility (in words): photopolymerization initiator containing the compound; for Solubility Ethyl lactate: in 100 parts by weight of ethyl lactate; for Solubility Ethyl lactate / Solubility PGMEA / Solubility PGME: room temperature; for Solubility PGMEA: in 100 parts by weight of propylene glycol monomethyl ether acetate; for Solubility PGME: in 100 parts by weight of propylene glycol monomethyl ether
Experimental: An evaluation for solubility was performed in accordance with the following evaluation criteria based on the dissolution amount.
A: 10 Parts by weight or more of the photopolymerization initiator is dissolved.
B: An amount in the range of from 5 parts by weight or more to less than 10 parts by weight of the photopolymerization initiator is dissolved.
C: An amount in the range of from 2 parts by weight or more to less than 5 parts by weight of the photopolymerization initiator is dissolved.
D: Less than 2 parts by weight of the photopolymerization initiator is dissolved.

[7] = Evaluation 3: 20-μm pattern line width of black photosensitive composition; settings: black composition (carbon black, cardo resin), initiator 0.4 mmol
Text: The mixture was filtered with a membrane filter having an aperture of 5 μm to provide a photosensitive composition.
Photosensitive compositions were each obtained in the same manner as in Example 10 except that the used fluorene-based compound and its usage were changed as shown in Table 5.
Each of the photosensitive compositions obtained in Examples 10 to 15, Examples 2-11 to 2-20, and Comparative Example 3 was applied onto a glass substrate with a spin coater (manufactured by Kyowariken Co., Ltd., trade name: “K-359SD1”) so that its thickness after drying became 1.0 μm. The glass substrate after the application was dried with a fan dryer at 90° C. for 10 minutes. Thus, a coating film (photosensitive layer) was formed. Next, the film was exposed to light having an exposure energy quantity of 10 mJ/cm^2, 20 mJ/cm^2, 40 mJ/cm^2, 60 mJ/cm^2, or 80 mJ/cm^2 by using a high-pressure mercury lamp (manufactured by Karl Suss, trade name: “MASK ALIGNER”) through a negative mask (mask width: 20 μm). Next, the resultant was immersed in a 0.1 wt % aqueous solution of tetra methyl ammonium hydroxide (TMAH) and then rinsed with pure water. The remaining cured film was subjected to the following evaluation. In addition, FIGS. 2, 3, and 6 show microscope photographs of black cured films obtained by using the photosensitive compositions of Examples 10 and 11, and Comparative Example 3, and FIGS. 7 to 11 show microscope photographs of black cured films obtained by using the photosensitive compositions of Examples 2-11, 2-13, 2-14, 2-17, and 2-18.
as §1

[8] = exposure energy quantity 10 mJ/cm^2
[9] = exposure energy quantity 20 mJ/cm^2
[10] = exposure energy quantity 40 mJ/cm^2
[11] = exposure energy quantity 60 mJ/cm^2
[12] = exposure energy quantity 80 mJ/cm^2

Compound	Λ max (absorption maximum wavelength) [1] [nm]	Absorption coefficient at 365 nm [1] [mL/mg/cm]	Absorption coefficient at Λ max [1] [mL/mg/cm]	Decomposition point [2] [°C]	sensitivity to the active energy ray (in words) [3]	20-μm pattern line width [3, 8]	20-μm pattern line width [3, 9]	20-μm pattern line width [3, 10]	20-μm pattern line width [3, 11]	20-μm pattern line width [3, 12]	Average transmittance (700 nm to 400 nm) Solution [4] [%]	Average transmittance (700 nm to 400 nm) Transparent cured film [5] [%]	Transmittance (400 nm) Transparent cured film [5] [%]	transparency of photosensitive composition and formed product (in words) [5]	20-μm pattern line width ([7]; 10 mJ/cm^2)	20-μm pattern line width ([7]; 20 mJ/cm^2)	20-μm pattern line width ([7]; 40 mJ/cm^2)	20-μm pattern line width ([7]; 60 mJ/cm^2)	20-μm pattern line width ([7]; 80 mJ/cm^2)	also measured
CCCCCCC1(CCCCCC)c2cc(C(=O)c3cccs3)ccc2-c2ccc(C(CC(C)N(OC(C)=O)C(C)=O)=NOC(C)=O)cc21 (racemic) [Compound 11]	333.5	6.6	55.0	257.3	additionally high sensitivity to the active energy ray	19.9	20.5	21.9	22.5	22.8	93.0	100.0	99.1	additionally excellent transparency	–	–	–	–	–	–
CCCC1(CCC)c2cc(C(=NOC(C)=O)c3ccccc3C)ccc2-c2ccc([N+](=O)[O-])cc21 [Compound 1]	–	–	–	–	additionally high sensitivity to the active energy ray	20.7	21.6	22.6	23.3	23.8	88.7	99.3	92.0	–	20.2	21.2	22.1	23.2	23.3	solubility (in words) [6]: additionally excellent solubility
CCCCCCC1(CCCCCC)c2cc(C(=NOC(C)=O)c3ccccc3C)ccc2-c2ccc([N+](=O)[O-])cc21 [Compound 2]	–	–	–	–	additionally high sensitivity to the active energy ray	21.4	22.3	22.9	23.9	24.4	87.5	99.3	92.8	–	–	20.9	22.1	22.8	23.3	–
CCCCCCC1(CCCCCC)c2cc(C(=O)c3ccccc3C)ccc2-c2ccc(C(C)=NOC(C)=O)cc21 [Compound 6]	–	–	–	–	–	19.7	20.2	21.1	21.7	22.7	95.4	97.3	99.6	additionally excellent transparency	19.7	20.2	21.1	21.7	22.7	–
CCCCCCC1(CCCCCC)c2cc(C(=O)c3ccccc3)ccc2-c2ccc(C(C)=NOC(C)=O)cc21 [Compound 8]	–	–	–	–	additionally high sensitivity to the active energy ray	19.6	20.1	21.7	22.7	23.0	95.4	100.0	100.0	additionally excellent transparency	19.6	20.1	21.7	22.7	23.0	solubility (in words) [6]: additionally excellent solubility
CCCC1(CCC)c2ccccc2-c2ccc(/C(C)=N/OC(C)=O)cc21 [Compound 15]	315.0	0.0	70.0	280.0	–	–	–	–	–	–	–	–	–	–	–	–	–	–	–	Solubility Ethyl lactate [6]: D (Less than 2 parts by weight of the photopolymerization initiator is dissolved.); Solubility PGMEA [6]: C (An amount in the range of from 2 parts by weight or more to less than 5 parts by weight of the photopolymerization initiator is dissolved.); Solubility PGME [6]: D (Less than 2 parts by weight of the photopolymerization initiator is dissolved.)
CC(=O)ON=C(C)c1ccc2c(c1)Cc1ccccc1-2 [Compound 16]	296.5	0.1	97.7	240.9	–	–	–	–	–	–	–	–	–	–	–	–	–	–	–	Solubility Ethyl lactate [6]: C (An amount in the range of from 2 parts by weight or more to less than 5 parts by weight of the photopolymerization initiator is dissolved.); Solubility PGMEA [6]: B (An amount in the range of from 5 parts by weight or more to less than 10 parts by weight of the photopolymerization initiator is dissolved.); Solubility PGME [6]: B (An amount in the range of from 5 parts by weight or more to less than 10 parts by weight of the photopolymerization initiator is dissolved.)
CCCC1(CCC)c2cc(C(=NOC(C)=O)c3ccc(C(C)(C)C)cc3)ccc2-c2ccc([N+](=O)[O-])cc21 [Compound D-2]	–	–	–	–	additionally high sensitivity to the active energy ray	–	–	–	–	–	–	–	–	–	19.4	20.4	21.6	22.1	23.0	–
